From DBAASP
≈ marks a conversion by molar mass, not a printed value. Each block holds one compound with its values, some of them ahead of it.

What was measured:
Experiment in all cases: ≥ marks a high value that may be exact or a test limit, other limits are often not marked, values filed in µg/mL are converted to µM
[1] = tested on: Staphylococcus epidermidis ATCC 12228
Escherichia coli K88 = tested on: Escherichia coli K88
[2] = tested on: Bacillus cereus CGMCC 1.932
[3] = tested on: Listeria monocytogenes CGMCC 1.1075
Escherichia coli 078 = tested on: Escherichia coli 078
Escherichia coli UB1005 = tested on: Escherichia coli UB1005
[4] = tested on: Salmonella enterica subsp. enterica serovar Typhimurium ATCC 14028
[5] = tested on: Enterococcus faecalis ATCC 29212
[6] = tested on: Staphylococcus aureus ATCC 43300
[7] = tested on: Staphylococcus aureus ATCC 25923
Escherichia coli K99 = tested on: Escherichia coli K99
Acinetobacter baumannii = tested on: Acinetobacter baumannii
[8] = tested on: Pseudomonas aeruginosa ATCC 27853
[9] = tested on: Salmonella typhimurium ATCC 7731
[10] = tested on: Salmonella enterica subsp. enterica serovar Pullorum ATCC 7913
[11] = tested on: Pseudomonas aeruginosa PAO1
[12] = tested on: Bacillus subtilis CMCC 63501
[13] = tested on: Pseudomonas aeruginosa PA214
Escherichia coli K-12 = tested on: Escherichia coli K-12
[14] = tested on: Listeria monocytogenes EGD
Klebsiella pneumoniae = tested on: Klebsiella pneumoniae
[15] = tested on: Klebsiella pneumoniae NDM-1
[16] = tested on: Escherichia coli ATCC 35218
[17] = tested on: Escherichia coli ATCC 25922
Escherichia coli UTI89 = tested on: Escherichia coli UTI89
Enterobacter cloacae = tested on: Enterobacter cloacae
[18] = tested on: Klebsiella pneumoniae ATCC 700603
Vibrio cholerae = tested on: Vibrio cholerae
[19] = tested on: Escherichia coli BW25113 ΔsbmA
Escherichia coli = tested on: Escherichia coli
Escherichia coli BW25113 = tested on: Escherichia coli BW25113
[20] = tested on: Acinetobacter baumannii ATCC 19606
Pseudomonas aeruginosa = tested on: Pseudomonas aeruginosa
Escherichia coli 37 = tested on: Escherichia coli 37
[21] = tested on: Candida parapsilosis ATCC 22019
Shigella dysenteriae = tested on: Shigella dysenteriae
[22] = tested on: Candida albicans ATCC 2002
[23] = tested on: Candida albicans ATCC 90028
[24] = tested on: Pseudomonas aeruginosa CMCCB 1010
Staphylococcus aureus 37 = tested on: Staphylococcus aureus 37
[25] = tested on: Enterobacter cloacae ATCC 13047
[26] = tested on: Acinetobacter baumannii CR17
[27] = tested on: Acinetobacter baumannii ATCC BAA-1605
[28] = tested on: Staphylococcus aureus ATCC 33591
[29] = tested on: Enterococcus faecium ATCC 700221

SMILES: C[C@H](NC(=O)[C@H](C)NC(=O)[C@H](CCCCN)NC(=O)[C@H](Cc1ccccc1)NC(=O)[C@H](C)NC(=O)[C@H](CCCCN)NC(=O)[C@H](C)NC(=O)[C@H](Cc1c[nH]c2ccccc12)NC(=O)[C@H](C)NC(=O)[C@H](CCCCN)NC(=O)[C@H](C)NC(=O)[C@H](Cc1ccccc1)NC(=O)[C@H](CCCCN)NC(=O)[C@H](CCCCN)NC(=O)[C@H](C)NC(=O)[C@H](C)NC(=O)[C@@H](N)CCCCN)C(N)=O [KAAKKFAKAWAKAFKAA]
MIC [13]: ≥ 50 µM | MIC (Escherichia coli K-12): 12.5 µM (≈ 22.9 µg/mL) | MIC [11]: 50 µM (≈ 91.8 µg/mL)

SMILES: CC[C@H](C)[C@H](NC(=O)[C@H](Cc1cnc[nH]1)NC(=O)[C@@H](NC(=O)[C@H](CCCN=C(N)N)NC(=O)[C@H](CCCCN)NC(=O)[C@H](CCCN=C(N)N)NC(=O)[C@H](CCCCN)NC(=O)[C@H](CC(N)=O)NC(=O)[C@H](Cc1ccc(O)cc1)NC(=O)[C@H](CC(N)=O)NC(=O)[C@@H]1CCCN1C(=O)[C@H](CCCN=C(N)N)NC(=O)[C@@H](NC(=O)[C@@H](N)CS)[C@@H](C)O)[C@@H](C)CC)C(=O)NCC(=O)O [CTRPNYNKRKRIHIG]
MIC [14]: 5.76 µM (≈ 10.7 µg/mL)

SMILES: CC[C@H](C)[C@H](NC(=O)[C@@H]1CCCN1C(=O)[C@@H]1CCCN1C(=O)[C@H](CCCN=C(N)N)NC(=O)[C@H](Cc1ccccc1)NC(=O)[C@@H](N)CCCN=C(N)N)C(=O)N[C@@H](CCCN=C(N)N)C(=O)N[C@@H](CCCN=C(N)N)C(=O)N1CCC[C@H]1C(=O)N1CCC[C@H]1C(=O)N[C@H](C(=O)N[C@@H](CCCN=C(N)N)C(=O)N1CCC[C@H]1C(=O)N1CCC[C@H]1C(=O)N[C@@H](Cc1ccccc1)C(=O)N[C@@H](Cc1ccc(O)cc1)C(=O)N[C@@H](CCCN=C(N)N)C(=O)O)[C@@H](C)CC [RFRPPIRRPPIRPPFYR]
MIC [19]: ≥ 64 µM | MIC (Escherichia coli): 4 µM (≈ 8.89 µg/mL) | MIC [7]: > 64 µM | MIC [8]: > 64 µM | MIC (Escherichia coli BW25113): 8 µM (≈ 17.8 µg/mL) | MIC [20]: 64 µM (≈ 142 µg/mL) | MIC [18]: > 64 µM

Second part, led by results:

MIC [1]: 2 µM (≈ 3.44 µg/mL) | MIC (Escherichia coli K88): 4 µM (≈ 6.88 µg/mL) | MIC [2]: 8 µM (≈ 13.8 µg/mL) | MIC [3]: 1 µM (≈ 1.72 µg/mL) | MIC (Escherichia coli 078): 4 µM (≈ 6.88 µg/mL) | MIC (Escherichia coli UB1005): 8 µM (≈ 13.8 µg/mL) | MIC [4]: 8 µM (≈ 13.8 µg/mL) | MIC [5]: 4 µM (≈ 6.88 µg/mL) | MIC [6]: 2 µM (≈ 3.44 µg/mL) | MIC [7]: 2 µM (≈ 3.44 µg/mL) | MIC (Escherichia coli K99): 4 µM (≈ 6.88 µg/mL) | MIC (Acinetobacter baumannii): 2 µM (≈ 3.44 µg/mL) | MIC [8]: 16 µM (≈ 27.5 µg/mL) | MIC [9]: 4 µM (≈ 6.88 µg/mL) | MIC [10]: 8 µM (≈ 13.8 µg/mL) | MIC [11]: 4 µM (≈ 6.88 µg/mL) | MIC [12]: 2 µM (≈ 3.44 µg/mL)
SMILES: NC(=O)[C@H](Cc1ccccc1)NC(=O)[C@H](CCCN=C(N)N)NC(=O)[C@H](Cc1c[nH]c2ccccc12)NC(=O)[C@H](CCCN=C(N)N)NC(=O)[C@H](Cc1c[nH]c2ccccc12)NC(=O)[C@H](Cc1c[nH]c2ccccc12)NC(=O)[C@H](Cc1c[nH]c2ccccc12)NC(=O)[C@H](CCCN=C(N)N)NC(=O)[C@H](Cc1c[nH]c2ccccc12)NC(=O)[C@@H](N)CCCN=C(N)N [RWRWWWRWRF]

MIC (Klebsiella pneumoniae): 5.66 µM (≈ 18.4 µg/mL) | MIC [15]: 4 µM (≈ 13 µg/mL) | MIC [16]: 4 µM (≈ 13 µg/mL) | MIC [17]: 4 µM (≈ 13 µg/mL) | MIC (Escherichia coli UTI89): 4 µM (≈ 13 µg/mL) | MIC [8]: 4 µM (≈ 13 µg/mL) | MIC [11]: 4 µM (≈ 13 µg/mL) | MIC (Enterobacter cloacae): 4 µM (≈ 13 µg/mL) | MIC [18]: 4 µM (≈ 13 µg/mL)
SMILES: CC[C@H](C)[C@H](NC(=O)[C@@H](NC(=O)[C@@H]1CCCN1C(=O)[C@H](CO)NC(=O)[C@H](CC(C)C)NC(=O)[C@H](CCCCN)NC(=O)[C@H](CCCCN)NC(=O)[C@H](Cc1ccccc1)NC(=O)[C@H](CC(C)C)NC(=O)[C@H](CCCCN)NC(=O)[C@H](CCCCN)NC(=O)[C@H](CC(C)C)NC(=O)[C@H](CCCCN)NC(=O)[C@H](CCCCN)NC(=O)[C@H](CCCN=C(N)N)NC(=O)[C@H](Cc1ccccc1)NC(=O)[C@H](CCCN=C(N)N)NC(=O)[C@H](CCCCN)NC(=O)[C@H](Cc1ccccc1)NC(=O)[C@H](CCCN=C(N)N)NC(=O)CN)C(C)C)C(=O)N1CCC[C@H]1C(=O)N[C@@H](CC(C)C)C(=O)N[C@@H](CC(C)C)C(=O)N[C@@H](Cc1cnc[nH]1)C(=O)N[C@@H](CC(C)C)C(=O)NCC(=O)O [GRFKRFRKKLKKLFKKLSPVIPLLHLG]
MIC (Vibrio cholerae): 2.83 µM (≈ 9.19 µg/mL)

MIC (Klebsiella pneumoniae): 28.9 µM (≈ 40 µg/mL) | MIC (Pseudomonas aeruginosa): 3.61 µM (≈ 5 µg/mL) | MIC (Escherichia coli 37): 14.5 µM (≈ 20 µg/mL) | MIC [21]: 1.81 µM (≈ 2.5 µg/mL) | MIC (Shigella dysenteriae): 14.5 µM (≈ 20 µg/mL) | MIC [17]: 1.81 µM (≈ 2.5 µg/mL) | MIC [22]: 7.23 µM (≈ 10 µg/mL) | MIC [23]: 7.23 µM (≈ 10 µg/mL) | MIC [5]: 3.61 µM (≈ 5 µg/mL) | MIC [7]: 0.867 µM (≈ 1.2 µg/mL) | MIC [24]: 7.23 µM (≈ 10 µg/mL) | MIC [8]: 28.9 µM (≈ 40 µg/mL) | MIC (Staphylococcus aureus 37): 3.61 µM (≈ 5 µg/mL) | MIC [25]: 1.81 µM (≈ 2.5 µg/mL) | MIC [18]: 7.23 µM (≈ 10 µg/mL)
SMILES: CC[C@H](C)[C@H](NC(=O)[C@@H](NC(=O)[C@@H]1CCCN1C(=O)[C@H](CC(C)C)NC(=O)[C@@H](N)Cc1ccccc1)[C@@H](C)CC)C(=O)NCC(=O)N[C@@H](CCCCN)C(=O)N[C@@H](CC(C)C)C(=O)N[C@@H](CC(C)C)C(=O)N[C@@H](CO)C(=O)NCC(=O)N[C@@H](CC(C)C)C(=O)N[C@@H](CC(C)C)C(=O)O [FLPIIGKLLSGLL]

MIC [26]: ≥ 32.7 µM | MIC [27]: 2.76 µM (≈ 4 µg/mL) | MIC [17]: 5.86 µM (≈ 8.49 µg/mL) | MIC [28]: 23.1 µM (≈ 33.5 µg/mL) | MIC [8]: 11.7 µM (≈ 17 µg/mL) | MIC [29]: 5.86 µM (≈ 8.49 µg/mL) | MIC [20]: 5.86 µM (≈ 8.49 µg/mL) | MIC [18]: 5.86 µM (≈ 8.49 µg/mL)
SMILES: CC[C@H](C)[C@H](NC(=O)[C@H](CCCCN)NC(=O)[C@H](CCCCN)NC(=O)[C@H](Cc1ccccc1)NC(=O)[C@H](CC(C)C)NC(=O)[C@H](CCCCN)NC(=O)[C@@H](N)CCCCN)C(=O)N[C@@H](CC(C)C)C(=O)N[C@@H](CCCN=C(N)N)C(=O)N[C@@H](Cc1ccc(O)cc1)C(=O)N[C@@H](CC(C)C)C(N)=O [KKLFKKILRYL]
